Patent US10494355B2, “Oxadiazole amine derivative compounds as histone deacetylase 6 inhibitor, and the pharmaceutical composition comprising the same” (Chong Kun Dang Pharmaceutical Corp., priority 2015, dated 2019)

Experiments:
human recombinant HDAC1 = target: T1, human recombinant HDAC1 (Homo sapiens, UniProt Q13547); experiment: HDAC1 enzyme activity inhibition assay (HDAC Fluorimetric Drug Discovery Kit); type: biochemical; details: human recombinant HDAC1, 10 μM substrate, 30° C. 60 minutes
T1 construct: purchased Enzo Life Science BML-SE456
Method in brief: (§1)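 IC50s derived from fluorescence (Ex 360, Em 460) read after a 30-min developer step. Beforehand, compounds in 5-fold dilution series reacted 60 min at 30° C with 0.3 μg human recombinant enzyme and 10 μM Fluor de Lys-SIRT1 substrate.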

human recombinant HDAC6 = target: T2, human recombinant HDAC6 (Homo sapiens, UniProt Q9UBN7); experiment: HDAC6 enzyme activity inhibition assay (HDAC Fluorimetric Drug Discovery Kit); type: biochemical; details: 30° C. 60 minutes
T2 construct: purchased Calbiochem 382180
T2 sequence (Q9UBN7 1-1215): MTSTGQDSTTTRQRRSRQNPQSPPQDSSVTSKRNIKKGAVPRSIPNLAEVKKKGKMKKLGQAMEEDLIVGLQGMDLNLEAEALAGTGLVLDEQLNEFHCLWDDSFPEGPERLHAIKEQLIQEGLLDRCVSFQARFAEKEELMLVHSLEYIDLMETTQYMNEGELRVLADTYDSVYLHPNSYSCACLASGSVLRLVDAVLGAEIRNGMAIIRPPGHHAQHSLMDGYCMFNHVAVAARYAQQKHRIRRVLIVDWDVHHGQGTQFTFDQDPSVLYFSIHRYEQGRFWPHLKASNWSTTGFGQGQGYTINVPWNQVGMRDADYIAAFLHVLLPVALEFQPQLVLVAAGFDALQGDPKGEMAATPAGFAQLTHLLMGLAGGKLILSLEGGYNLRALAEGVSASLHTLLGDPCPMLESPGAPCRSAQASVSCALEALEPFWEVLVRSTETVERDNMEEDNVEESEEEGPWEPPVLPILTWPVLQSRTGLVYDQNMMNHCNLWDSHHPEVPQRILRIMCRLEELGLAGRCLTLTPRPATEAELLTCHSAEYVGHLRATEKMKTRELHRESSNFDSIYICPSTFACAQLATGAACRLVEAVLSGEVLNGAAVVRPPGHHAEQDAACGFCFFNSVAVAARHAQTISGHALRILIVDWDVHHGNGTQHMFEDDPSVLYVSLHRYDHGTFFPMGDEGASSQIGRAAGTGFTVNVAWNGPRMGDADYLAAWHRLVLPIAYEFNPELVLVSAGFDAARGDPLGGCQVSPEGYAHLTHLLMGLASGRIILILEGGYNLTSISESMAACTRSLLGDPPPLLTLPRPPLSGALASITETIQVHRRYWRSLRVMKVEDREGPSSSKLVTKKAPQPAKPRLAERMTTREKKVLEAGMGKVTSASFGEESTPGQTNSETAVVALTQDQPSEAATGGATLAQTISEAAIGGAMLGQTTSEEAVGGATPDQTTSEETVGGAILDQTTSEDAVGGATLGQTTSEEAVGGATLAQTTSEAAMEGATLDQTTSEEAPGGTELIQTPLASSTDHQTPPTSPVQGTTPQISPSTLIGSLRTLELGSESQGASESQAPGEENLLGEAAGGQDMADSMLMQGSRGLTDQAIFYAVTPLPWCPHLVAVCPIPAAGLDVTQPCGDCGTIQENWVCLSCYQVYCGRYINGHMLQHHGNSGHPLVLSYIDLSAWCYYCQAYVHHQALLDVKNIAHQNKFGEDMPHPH
Method in brief: as §1

T1 sequence (Q13547 whole entry): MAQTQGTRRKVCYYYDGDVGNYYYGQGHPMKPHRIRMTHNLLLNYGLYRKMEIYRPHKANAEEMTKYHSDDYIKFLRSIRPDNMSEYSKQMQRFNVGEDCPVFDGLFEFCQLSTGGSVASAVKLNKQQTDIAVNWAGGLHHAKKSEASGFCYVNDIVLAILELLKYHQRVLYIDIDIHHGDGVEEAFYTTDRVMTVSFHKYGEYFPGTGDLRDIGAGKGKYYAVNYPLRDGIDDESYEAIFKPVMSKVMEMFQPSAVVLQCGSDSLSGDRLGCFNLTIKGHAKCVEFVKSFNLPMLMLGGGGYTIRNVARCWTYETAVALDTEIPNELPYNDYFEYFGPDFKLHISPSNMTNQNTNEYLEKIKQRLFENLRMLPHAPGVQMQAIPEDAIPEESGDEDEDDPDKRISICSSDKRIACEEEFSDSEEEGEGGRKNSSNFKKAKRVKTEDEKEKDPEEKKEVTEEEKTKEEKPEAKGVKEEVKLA

| IC50 (human recombinant HDAC1) [nM] | IC50 (human recombinant HDAC6) [nM] | Structure (SMILES) |
| --- | --- | --- |
| > 10000 | 40 | FC(F)c1nnc(-c2cnc(NC3(c4cccnc4)CCC3)nc2)o1 [Compound 1913, 5-(5-(difluoromethyl)-1,3,4-oxadiazol-2-yl)-N-(1-(pyridin-3-yl)cyclobutyl)pyrimidin-2-amine] |
| > 10000 | 234 | Cc1ccccc1C1(Nc2ncc(-c3nnc(C(F)(F)F)o3)cn2)CCC1 [Compound 1672, N-(1-(o-tolyl)cyclobutyl)-5-(5-(trifluoromethyl)-1,3,4-oxadiazol-2-yl)pyrimidin-2-amine] |
| > 10000 | 173 | FC(F)c1nnc(-c2cnc(NC3(c4ccccc4C(F)(F)F)CCC3)nc2)o1 [Compound 2042, 5-(5-(difluoromethyl)-1,3,4-oxadiazol-2-yl)-N-(1-(2-(trifluoromethyl)phenyl)cyclobutyl)pyrimidin-2-amine] |
| > 10000 | 57 | FC(F)c1nnc(-c2cnc(NC3(c4cccc(C(F)(F)F)c4)CCC3)nc2)o1 [Compound 1642, 5-(5-(difluoromethyl)-1,3,4-oxadiazol-2-yl)-N-(1-(3-(trifluoromethyl)phenyl)cyclobutyl)pyrimidin-2-amine] |
| > 10000 | 751 | Fc1ccc(C2(Nc3ncc(-c4nnc(C(F)(F)F)o4)cn3)CCC2)cc1Cl [Compound 1818, N-(1-(3-chloro-4-fluorophenyl)cyclobutyl)-5-(5-(trifluoromethyl)-1,3,4-oxadiazol-2-yl)pyrimidin-2-amine] |
| > 10000 | 367 | CN1CCC(c2ccc(C3(Nc4ncc(-c5nnc(C(F)F)o5)cn4)CCC3)cc2)CC1 [Compound 2035, 5-(5-(difluoromethyl)-1,3,4-oxadiazol-2-yl)-N-(1-(4-(1-methylpiperidin-4-yl)phenyl)cyclobutyl)pyrimidin-2-amine] |
| > 10000 | 39 | Cc1ccc(C2(Nc3ncc(-c4nnc(C(F)F)o4)cn3)CCC2)cc1 [Compound 1675, 5-(5-(difluoromethyl)-1,3,4-oxadiazol-2-yl)-N-(1-(p-tolyl)cyclobutyl)pyrimidin-2-amine] |
| > 10000 | 26 | Fc1ccc(C2(Nc3ncc(-c4nnc(C(F)F)o4)cn3)CC2)cc1 [Compound 1711, 5-(5-(difluoromethyl)-1,3,4-oxadiazol-2-yl)-N-(1-(4-fluorophenyl)cyclopropyl)pyrimidin-2-amine] |
| > 10000 | 46 | FC(F)c1nnc(-c2cnc(NC3(c4ccccc4)CCCC3)nc2)o1 [Compound 1579, 5-(5-(difluoromethyl)-1,3,4-oxadiazol-2-yl)-N-(1-phenylcyclopentyl)pyrimidin-2-amine] |
| > 10000 | 22 | FC(F)c1nnc(-c2cnc(NC3(c4cccc(Cl)c4)CCC3)nc2)o1 [Compound 1615, N-(1-(3-chlorophenyl)cyclobutyl)-5-(5-(difluoromethyl)-1,3,4-oxadiazol-2-yl)pyrimidin-2-amine] |
| > 10000 | 44 | FC(F)c1nnc(-c2cnc(NC3(c4ccc(Cl)cc4)CCC3)nc2)o1 [Compound 1616, N-(1-(4-chlorophenyl)cyclobutyl)-5-(5-(difluoromethyl)-1,3,4-oxadiazol-2-yl)pyrimidin-2-amine] |
| > 10000 | 51 | COc1ccc(C2(Nc3ncc(-c4nnc(C(F)F)o4)cn3)CC2)cc1 [Compound 2049, 5-(5-(difluoromethyl)-1,3,4-oxadiazol-2-yl)-N-(1-(4-methoxyphenyl)cyclopropyl)pyrimidin-2-amine] |
| > 10000 | 888 | Fc1ccc(Cl)c(C2(Nc3ncc(-c4nnc(C(F)(F)F)o4)cn3)CCC2)c1 [Compound 1962, N-(1-(2-chloro-5-fluorophenyl)cyclobutyl)-5-(5-(trifluoromethyl)-1,3,4-oxadiazol-2-yl)pyrimidin-2-amine] |
| > 10000 | 28 | FC(F)c1nnc(-c2cnc(NC3(c4ccccn4)CCC3)nc2)o1 [Compound 1640, 5-(5-(difluoromethyl)-1,3,4-oxadiazol-2-yl)-N-(1-(pyridin-2-yl)cyclobutyl)pyrimidin-2-amine] |
| > 10000 | 32 | COc1ccccc1C1(Nc2ncc(-c3nnc(C(F)F)o3)cn2)CC1 [Compound 2047, 5-(5-(difluoromethyl)-1,3,4-oxadiazol-2-yl)-N-(1-(2-methoxyphenyl)cyclopropyl)pyrimidin-2-amine] |
| > 10000 | 329 | Fc1ccc(C2(Nc3ncc(-c4nnc(C(F)F)o4)cn3)CCC2)cc1N1CCOCC1 [Compound 2046, 5-(5-(difluoromethyl)-1,3,4-oxadiazol-2-yl)-N-(1-(4-fluoro-3-morpholinophenyl)cyclobutyl)pyrimidin-2-amine] |
| > 10000 | 750 | FC(F)(F)c1nnc(-c2cnc(NC3(c4cccc(Cl)c4Cl)CCC3)nc2)o1 [Compound 1833, N-(1-(2,3-dichlorophenyl)cyclobutyl)-5-(5-(trifluoromethyl)-1,3,4-oxadiazol-2-yl)pyrimidin-2-amine] |
| > 10000 | 26 | FC(F)c1nnc(-c2cnc(NC3(c4cccc(Cl)c4)CC3)nc2)o1 [Compound 2050, N-(1-(3-chlorophenyl)cyclopropyl)-5-(5-(difluoromethyl)-1,3,4-oxadiazol-2-yl)pyrimidin-2-amine] |
| > 10000 | 204 | COc1ccc(C2(Nc3ncc(-c4nnc(C(F)(F)F)o4)cn3)CCC2)cc1 [Compound 1604, N-(1-(4-methoxyphenyl)cyclobutyl)-5-(5-(trifluoromethyl)-1,3,4-oxadiazol-2-yl)pyrimidin-2-amine] |
| > 10000 | 256 | FC(F)c1nnc(-c2cnc(NC3(c4ccc(N5CCOCC5)cc4)CCC3)nc2)o1 [Compound 2062, 5-(5-(difluoromethyl)-1,3,4-oxadiazol-2-yl)-N-(1-(4-morpholinophenyl)cyclobutyl)pyrimidin-2-amine] |
| > 10000 | 179 | FC(F)(F)c1nnc(-c2cnc(NC3(c4ccccc4)CC3)nc2)o1 [Compound 1526, N-(1-phenylcyclopropyl)-5-(5-(trifluoromethyl)-1,3,4-oxadiazol-2-yl)pyrimidin-2-amine] |
| > 10000 | 758 | FC(F)c1nnc(-c2cnc(NC3(Cc4ccccc4)CCC3)nc2)o1 [Compound 2030, N-(1-benzylcyclobutyl)-5-(5-(difluoromethyl)-1,3,4-oxadiazol-2-yl)pyrimidin-2-amine] |
| > 10000 | 70 | Fc1c(Cl)cccc1C1(Nc2ncc(-c3nnc(C(F)F)o3)cn2)CCC1 [Compound 1965, N-(1-(3-chloro-2-fluorophenyl)cyclobutyl)-5-(5-(difluoromethyl)-1,3,4-oxadiazol-2-yl)pyrimidin-2-amine] |
| > 10000 | 23 | Fc1ccccc1C1(Nc2ncc(-c3nnc(C(F)F)o3)cn2)CCC1 [Compound 1609, 5-(5-(difluoromethyl)-1,3,4-oxadiazol-2-yl)-N-(1-(2-fluorophenyl)cyclobutyl)pyrimidin-2-amine] |
| > 10000 | 267 | FC(F)(F)c1nnc(-c2cnc(NC3(c4ccc(Cl)cc4)CCC3)nc2)o1 [Compound 1618, N-(1-(4-chlorophenyl)cyclobutyl)-5-(5-(trifluoromethyl)-1,3,4-oxadiazol-2-yl)pyrimidin-2-amine] |
| > 10000 | 450 | FC(F)(F)c1cccc(C2(Nc3ncc(-c4nnc(C(F)(F)F)o4)cn3)CC2)c1 [Compound 1741, 5-(5-(trifluoromethyl)-1,3,4-oxadiazol-2-yl)-N-(1-(3-(trifluoromethyl)phenyl)cyclopropyl)pyrimidin-2-amine] |
| > 10000 | 154 | Fc1cccc(C2(Nc3ncc(-c4nnc(C(F)(F)F)o4)cn3)CCC2)c1 [Compound 1608, N-(1-(3-fluorophenyl)cyclobutyl)-5-(5-(trifluoromethyl)-1,3,4-oxadiazol-2-yl)pyrimidin-2-amine] |
